Patent US20200330615A1, “NONINVASIVE IMAGING OF FOCAL ATHEROSCLEROTIC LESIONS USING FLUORESCENCE MOLECULAR TOMOGRAPHY” (Washington University, priority 2015, published 2020)
Entries after “also recorded” stand apart in the source; their conditions may differ. Bridge positions count the residues as written; N and C are the ends. cypate = near infrared fluorescent dye cypate

Columns and labels:
[1] = system: NPR-C expressing macrophages; assay: Ex vivo staining of paraffin fixed artery sections with LS668, fluorescence microscopy; design: species or system rabbit; fluorescence signal of control artery section after ex vivo staining: dose or concentration left out as unconfirmed; conditions: 30 min, 37° C.
Description: FIG. 3A, FIG. 3B and FIG. 3C depict images showing ex vivo studies on the paraffin fixed sections of injured (top row) and control artery (bottom row) sections obtained at 8 weeks postsurgery. FIG. 3A depicts bright field images showing IEL, internal elastic lamina; A, adventitia; M, media; 1° NEO, primary neointima. Scale: 500 m. FIG. 3B depicts corresponding fluorescence images (excitation/emission: 710 75 nm 810 90 nm) after ex vivo staining with LS668. Scale: 500 m. FIG. 3C depicts immunohistochemistry on tissue sections with clone RAM11 antibody (1:100 dilution; blue) for macrophages and counterstained with nuclear fast red. Scale: 250 m. Ex vivo histological validation studies were performed on the arteries at week 8 following the final imaging session. Prior to collecting the arterial segments, the vascular system was flushed with saline and then perfusion fixed with 4% paraformaldehyde and paraffin embedded. Tissue sections were deparaffinized for further studies. […] Histology sections were also stained for macrophages with mouse monoclonal antibody to rabbit macrophages (clone RAM11). Positive signal was visualized using alkaline phosphatase-conjugated secondary antibody and blue substrate, and nuclear fast red counterstain. […] Serial sections were also stained for alpha-smooth muscle actin (SMA).

[2] = design: species or system New Zealand white rabbits; conditions: rabbit, in vivo
Excerpt: A model of focal atherosclerotic-like plaques in the femoral arteries (located 1 to 1.5 cm from skin surface) of New Zealand white rabbits was used. All animal studies performed were approved by the Washington University Animal Studies Committee. Endothelial denudation of surgically exposed right femoral artery was induced by air desiccation of the luminal surface as described previously.^4 The uninjured left femoral artery served as the internal control. The animals were maintained on a cholesterol-enriched diet (>200 mg dL in blood), and over time the air desiccation led to a focal lesion. In this animal model, anatomical coregistration was not used because the location of the lesion was apparent due to the surgical markings and identification by the surgeon at each imaging session. […] NPR-C (clearance receptor) removes NPs from circulation by receptor mediated endocytosis.^6 A bioconjugate LS668 (Cypate-RSSc[[…]]) (SEQ ID NO:3), consisting of a near infrared (NIR) fluorescent dye cypate conjugated to a targeting peptide, C-type atrial natriuretic peptide, specific for NPR-C was evaluated (FIG. 1A). […] Integrated fluorescence signal (directly related to the quantity of LS668 in tissue) was calculated from each tissue volume (thresholded at above 20% of respective maximum signal) (FIG. 2H). […]

NPR-A = target: T1, NPR-A (Homo sapiens, UniProt P16066); assay: Cellular internalization of LS668 in control 293T-NPR-A cells (fluorescence microscopy); format: cell-based
T1 construct: expressed in transfected cells; host or cells: 293T
T1 sequence (P16066 33-1061): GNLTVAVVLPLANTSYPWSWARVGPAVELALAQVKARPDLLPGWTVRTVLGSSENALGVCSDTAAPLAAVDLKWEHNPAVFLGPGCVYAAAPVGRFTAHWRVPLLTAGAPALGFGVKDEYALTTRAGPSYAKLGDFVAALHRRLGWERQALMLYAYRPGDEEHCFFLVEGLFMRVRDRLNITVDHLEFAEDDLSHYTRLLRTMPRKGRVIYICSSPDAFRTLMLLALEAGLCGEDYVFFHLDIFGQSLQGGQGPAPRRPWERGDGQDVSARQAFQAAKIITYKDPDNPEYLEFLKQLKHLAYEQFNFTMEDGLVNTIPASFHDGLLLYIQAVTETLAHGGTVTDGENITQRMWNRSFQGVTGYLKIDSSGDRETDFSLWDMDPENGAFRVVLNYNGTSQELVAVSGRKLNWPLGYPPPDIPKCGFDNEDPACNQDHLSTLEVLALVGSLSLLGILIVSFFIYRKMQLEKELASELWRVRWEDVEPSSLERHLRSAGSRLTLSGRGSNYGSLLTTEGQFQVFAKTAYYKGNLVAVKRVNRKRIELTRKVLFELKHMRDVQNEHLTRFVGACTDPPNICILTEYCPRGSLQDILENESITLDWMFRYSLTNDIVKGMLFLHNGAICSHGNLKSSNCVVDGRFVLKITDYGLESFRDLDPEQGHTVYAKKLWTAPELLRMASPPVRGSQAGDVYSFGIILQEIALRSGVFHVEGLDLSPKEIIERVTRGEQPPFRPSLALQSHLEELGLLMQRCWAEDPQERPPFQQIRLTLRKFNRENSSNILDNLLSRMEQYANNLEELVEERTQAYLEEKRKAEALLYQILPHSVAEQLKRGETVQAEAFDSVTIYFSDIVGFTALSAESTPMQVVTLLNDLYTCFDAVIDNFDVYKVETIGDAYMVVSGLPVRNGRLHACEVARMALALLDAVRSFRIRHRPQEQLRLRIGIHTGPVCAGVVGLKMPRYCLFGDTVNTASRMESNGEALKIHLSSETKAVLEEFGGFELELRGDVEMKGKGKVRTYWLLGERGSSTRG

[3] = Ex vivo tissue biodistribution, injured vs control femoral artery; format: in vivo, New Zealand white rabbits; conditions: 24-h post-injection at week 8, n=2
Excerpt: FIG. 2A, FIG. 2B, FIG. 2C, FIG. 2D, FIG. 2E, FIG. 2F, FIG. 2G, FIG. 2H and FIG. 2I depict images showing coronal (depth=7 mm), sagittal and transverse sections of reconstructed fluorescence molecular tomography (FMT) signal from injured artery (FIG. 2A, FIG. 2B, FIG. 2C) and corresponding control artery (FIG. 2D, FIG. 2E, FIG. 2F) from a representative animal (rabbit 1). White lines indicate the position of the respective sagittal and transverse sections. […] FIG. 2H depicts a graph showing time dependent changes in integrated fluorescence signal (mean SD, n=3) for injured and control arteries (*P=0.0283; **P=0.0282). FIG. 2I depicts a graph showing the mean (n=2) fluorescence intensity obtained from the ex vivo injured artery containing the lesion and the control artery.
A model of focal atherosclerotic-like plaques in the femoral arteries (located 1 to 1.5 cm from skin surface) of New Zealand white rabbits was used. All animal studies performed were approved by the Washington University Animal Studies Committee. […] NPR-C (clearance receptor) removes NPs from circulation by receptor mediated endocytosis.^6 A bioconjugate LS668 (Cypate-RSSc[[…]]) (SEQ ID NO:3), consisting of a near infrared (NIR) fluorescent dye cypate conjugated to a targeting peptide, C-type atrial natriuretic peptide, specific for NPR-C was evaluated (FIG. 1A). […]

NPR-C = target: T2, NPR-C (Homo sapiens, UniProt P17342); assay: Cellular internalization of LS668 in stably transfected 293T-NPR-C cells (fluorescence microscopy); format: cell-based; design: cellular internalization in presence of excess C-ANF peptide: dose or concentration left out as unconfirmed
T2 construct: expressed in transfected cells; host or cells: 293T
T2 sequence (P17342 27-541): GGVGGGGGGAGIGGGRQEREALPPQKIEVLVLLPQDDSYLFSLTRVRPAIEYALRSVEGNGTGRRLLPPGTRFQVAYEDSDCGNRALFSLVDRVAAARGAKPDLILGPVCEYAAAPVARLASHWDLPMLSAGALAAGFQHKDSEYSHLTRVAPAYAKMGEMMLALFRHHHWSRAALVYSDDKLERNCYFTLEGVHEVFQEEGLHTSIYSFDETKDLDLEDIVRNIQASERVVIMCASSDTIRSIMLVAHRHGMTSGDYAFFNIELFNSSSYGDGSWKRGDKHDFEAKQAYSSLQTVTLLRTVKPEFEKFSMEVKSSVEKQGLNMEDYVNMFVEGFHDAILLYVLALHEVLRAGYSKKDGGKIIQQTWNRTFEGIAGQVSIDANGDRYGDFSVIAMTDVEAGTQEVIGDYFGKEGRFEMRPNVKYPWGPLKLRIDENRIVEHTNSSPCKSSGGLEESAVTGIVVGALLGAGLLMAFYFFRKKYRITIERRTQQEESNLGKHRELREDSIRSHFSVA

[4] = system: C-type natriuretic peptide receptors (NPR-C) on focal atherosclerotic lesions; assay: In vivo fluorescence molecular tomography (FMT) of focal atherosclerotic lesions in femoral arteries; design: species or system New Zealand white rabbits; conditions: for integrated fluorescence signal, difference between control and injured arteries, P (unpaired t test, two tailed): n=3
Excerpt: Carotid artery atherosclerosis is classified as an important cause of stroke. Unstable plaque is characterized by an eccentric neo-intimal lesion with a lipid core covered by a thinning cap of smooth muscle cells, active angiogenesis, increased matrix metalloproteinase activity, and translocation of monocyte/macrophages that transform into foam cells. Timely noninvasive imaging that could signal prerupture plaque progression will reduce the morbidity and mortality by allowing early intervention.^1 Although positron emission tomography (PET) and magnetic resonance imaging (MRI) are routinely used for metabolic and morphologic imaging, these modalities are not suited for frequent monitoring or even screening of at-risk patients because of ionizing radiation (PET) and expense (PET, MRI). Transcutaneous Doppler and intravascular ultrasound are insensitive to the subtle molecular changes of critical importance. Fluorescence molecular tomography (FMT) is an emerging optical imaging technology that allows tomographic and quantitative visualization of molecular events in vivo.^2 In this study, a custom built, fiber-based, portable, video-rate FMT system was used for proof-of-principle studies to detect C-type natriuretic peptide receptors (NPR-C) on focal atherosclerotic lesions in the superficial rabbit femoral arteries. The FMT system consisted of a flexible imaging pad (3 cm×3 cm), containing 12 sources 785 nm 20 kHz, and 830 nm 17-kHz laser diodes as excitation source and reference, respectively.^3 The detectors allowed for dynamic concurrent acquisition of frequency encoded fluorescence emission (830 nm; 20 kHz) and transmission reference (830 nm; 17 kHz) signals for the fast generation of ratio-metric data for tomographic reconstruction of the tissue volume. The system could report varying concentrations (1 nM to 1 M) of indocyanine green at various depths up to 13.5 mm with a depth-dependent spatial resolution on the order of 12 mm.^3
A model of focal atherosclerotic-like plaques in the femoral arteries (located 1 to 1.5 cm from skin surface) of New Zealand white rabbits was used. All animal studies performed were approved by the Washington University Animal Studies Committee. Endothelial denudation of surgically exposed right femoral artery was induced by air desiccation of the luminal surface as described previously.^4 The uninjured left femoral artery served as the internal control. The animals were maintained on a cholesterol-enriched diet (>200 mg dL in blood), and over time the air desiccation led to a focal lesion. In this animal model, anatomical coregistration was not used because the location of the lesion was apparent due to the surgical markings and identification by the surgeon at each imaging session. In a clinical setting, coregistration of the FMT probe with the ultra sound (US) probe can be utilized. […] Natriuretic peptides (NPs) play an important role in regulating cardiovascular homeostasis. NPR-C (clearance receptor) removes NPs from circulation by receptor mediated endocytosis.^6 A bioconjugate LS668 (Cypate-RSSc[[…]]) (SEQ ID NO:3), consisting of a near infrared (NIR) fluorescent dye cypate conjugated to a targeting peptide, C-type atrial natriuretic peptide, specific for NPR-C was evaluated (FIG. 1A). […] Both injured and control femoral arteries of three animals were imaged at day 3 and weeks 1, 2, 4, 6, and 8 following the surgery. […]

[5] = 0.1 mg kg intravenous, FMT 24 h later

Cypate-RSSc[CFGGRIDRIGAC] (cypate-RSSCFGGRIDRIGAC-NH2; disulfide 4-15 (inferred); not fully specified) [LS668]
fluorescence signal of control artery section after ex vivo staining ([1]; week 8 control artery): uniform fluorescence signal akin to nonspecific background | fluorescence signal of injured artery section after ex vivo staining ([1]; LS668 10 M, week 8 injured artery, layers between adventitia and lumen): increased signal | time at which clearance from blood was achieved [2]: 24 h | cellular internalization in control cells (NPR-A): did not internalize; also recorded: absence of internalization | localization into injured femoral artery as compared to control femoral artery [3]: 3.7 fold | cellular internalization in presence of excess C-ANF peptide (NPR-C; 293T-NPR-C cells): Internalization was blocked; also recorded: inhibition of internalization | cellular internalization (NPR-C; LS668, 30-min incubation at 37° C., 5% CO2, stably transfected 293T-NPR-C cells): selectively internalized; also recorded: cellular internalization | uptake by tissue surrounding the localized fluorescent region [4, 5]: negligible nonspecific uptake | uptake in contralateral noninjured control femoral artery [4, 5]: negligible background uptake | accumulation at focal lesion (reconstructed FMT data) ([4]; 0.1 mg kg intravenous, FMT 24 h later, injured artery, depth of 4 to 16 mm, over 15 mm of length): localized fluorescence signal indicating accumulation of LS668 | integrated fluorescence signal, difference between control and injured arteries, P (unpaired t test, two tailed) ([4]; week 2 after surgery): 0.0283 | integrated fluorescence signal, difference between control and injured arteries, P (unpaired t test, two tailed) ([4]; week 6 after surgery): 0.0282
